The source of these data is patent publication US20260226427A1, “TEST SYSTEM COMPRISING STABLY CYP-TRANSFECTED OR TRANSDUCED MAMMALIAN CELLS” (BRANDENBURGISCHE TECHNISCHE UNIVERSITÄT COTTBUS-SENFTENBERG, priority 2023, published 2026).

Series [1] has as its target T1, CYP1A2 (Homo sapiens, UniProt P05177).
T1 sequence (P05177 2-516 limits assumed): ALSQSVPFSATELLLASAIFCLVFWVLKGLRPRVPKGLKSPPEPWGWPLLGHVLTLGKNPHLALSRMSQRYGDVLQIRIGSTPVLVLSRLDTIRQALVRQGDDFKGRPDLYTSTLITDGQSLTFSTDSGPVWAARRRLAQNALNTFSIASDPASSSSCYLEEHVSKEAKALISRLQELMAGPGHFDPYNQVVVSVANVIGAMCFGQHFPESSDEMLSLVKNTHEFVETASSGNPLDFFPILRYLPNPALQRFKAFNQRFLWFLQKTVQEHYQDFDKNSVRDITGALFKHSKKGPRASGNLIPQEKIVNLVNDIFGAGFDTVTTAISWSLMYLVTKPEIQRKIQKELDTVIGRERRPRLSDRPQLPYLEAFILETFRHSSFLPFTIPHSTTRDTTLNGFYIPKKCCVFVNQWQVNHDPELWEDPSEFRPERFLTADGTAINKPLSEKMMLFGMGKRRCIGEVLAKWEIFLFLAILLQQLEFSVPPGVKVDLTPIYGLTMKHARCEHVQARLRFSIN

Series [2] addresses T2, CYP3A4 (Homo sapiens, UniProt P08684).
For series [3], the target named is T2, CYP3A4. This is another data set of the same source.

Like-named read-outs stand apart in the source and are kept apart here.

T2 sequence (P08684 2-503 limits assumed): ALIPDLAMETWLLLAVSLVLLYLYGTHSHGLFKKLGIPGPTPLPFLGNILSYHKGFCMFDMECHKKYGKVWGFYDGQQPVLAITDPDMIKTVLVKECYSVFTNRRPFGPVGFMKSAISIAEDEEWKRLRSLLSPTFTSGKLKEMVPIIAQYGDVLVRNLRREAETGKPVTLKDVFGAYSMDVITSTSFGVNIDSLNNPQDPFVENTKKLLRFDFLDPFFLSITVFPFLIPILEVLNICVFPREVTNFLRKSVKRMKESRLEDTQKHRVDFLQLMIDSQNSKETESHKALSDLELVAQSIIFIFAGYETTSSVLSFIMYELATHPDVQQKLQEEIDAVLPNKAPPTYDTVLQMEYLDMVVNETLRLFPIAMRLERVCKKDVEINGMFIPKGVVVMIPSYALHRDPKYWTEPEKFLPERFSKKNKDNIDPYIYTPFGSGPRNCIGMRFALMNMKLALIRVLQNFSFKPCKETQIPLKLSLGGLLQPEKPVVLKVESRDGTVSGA

Consider `CCOc1ccc(NC(C)=O)cc1` [phenacetin], for which the phenacetin metabolite production in series [1] (2 h) was determined as 17 µg. Further, in series [1] (48 h), the phenacetin metabolite production worked out at 101 µg and the “yield of main metabolite m(acetaminophen)” value came to 101 ± 4 µg.

For the compound `C[C@]12CC[C@H]3[C@@H](CCC4=CC(=O)CC[C@@]43C)[C@@H]1CC[C@@H]2O` [testosterone], in series [2], the “yield of main metabolite (6β-hydroxytestosterone) in 200 μL preparation” value is given as “up to 100 ng” and the “yield of main metabolite in 200 μL metabolism preparation” value lay in the range of 100 to 200 ng. Moreover, the “yield of main metabolite m(6β-OH-T)” value in series [3] turned out to be 17.3 ± 1.4 µg.
